Measurements as given in PMC10415494, “Ga(III) pyridinecarboxylate complexes: potential analogues of the second generation of therapeutic Ga(III) complexes?” (Journal of Biological Inorganic Chemistry, 2023).
Read-outs that look alike come from different tables or passages of the source.

Legend:
[1] = system: HepG2 (human liver cancer cell line); experiment: MTT cell viability test; format: cell-based; settings: after 48 h
Experimental: Prior to each experiment, cell viability was determined using an automated cell counter (Countess II FL, Thermo Fisher Scientific, USA). 50 μl of the HepG2 cell suspension was transferred into new tube and 12.5 μl of trypan blue was added. After one minute, 10 μl was taken from the prepared suspension to determine the number of viable cells in 1 ml. The automated cell counter determined the total number of viable cells and the percentage of viability. […] Cells (2 × 10^4/200 μl) were incubated in 96-well microtiter plates for 24 and 48 h in the presence of metal complexes, picolinic acid, and gallium(III) nitrate, at 37 °C in humified atmosphere with 5% CO2. The cells were centrifuged for 10 min at 2500 rpm and 20 °C, supernatant was removed and 180 μl of fresh serum-free medium was added. Then 10 μl of MTT solution with a concentration of 5 mg/ml was added and cells were incubated for next 2–3 h in the dark until a precipitate formed. After centrifugation and removal of supernatant 150 μl of DMSO was added to the cells to dissolve the precipitate. Absorbance at 540 nm was measured using a spectrophotometer.

HepG2 cells = system: HepG2 cells; set-up: method as in PMID 16827101; settings: after 6 days of treatment; read-out: antiproliferative effect IC50; cited from earlier work
[2] = Complex stability in biological testing medium by time-dependent 1H NMR; format: physicochemical; settings: 300 K, over 96 h
Experimental: Nuclear magnetic resonance (NMR) data were collected on a Varian VNMRS 600 spectrometer operating at 599.87 MHz for ^1H. The concentration of all samples was approximately 3 mg/0.6 mL of 1% DMSO-d6/D2O. For comparison, the spectra of pure acids were also measured, while the pH of the solution of acids was adjusted to the same value as the solution of the complexes. The chemical shifts were referenced to the TSP (3-(trimethylsilyl)propionic-2,2,3,3-d4 acid sodium salt) peak (^1H NMR 0.00 ppm). The NMR data were recorded at 300 K, with chemical shifts δ reported in parts per million and coupling constants J in Hertz. All data were analysed using MestReNova 12.0.0 (2017) software. The stability in 1% DMSO-d6/D2O was determined for all samples. […]

[3] = system: Candida parapsilosis (C. parapsilosis) ATCC 22019; experiment: Antimicrobial activity, macrodilution method (yeast, growth by A590); format: cell-based; settings: Yeast, Sabouraud's growth medium, 37 °C, read-out: IC50 C. parapsilosis
Experimental: (§1) The antimicrobial activities of gallium(III) complexes GaPic, GaDpic, GaChel, GaCldpic, free ligands (HPic, H2Dpic, H2Chel, H2Cldpic) and positive controls (cefoxitin (C), ampicillin (A) and piperacillin (P)) were evaluated by macrodilution method using G^+ bacteria (Firmicutes) Staphylococcus aureus (S. aureus) CCM 3953 (Czech Collection of Microorganisms), G^− bacteria (γ-proteobacteria) Escherichia coli (E. coli) CCM 3988, Pseudomonas aeruginosa (P. aeruginosa) CCM 1959 (Czech Collection of Microorganisms) and the yeast Candida parapsilosis (C. parapsilosis) ATCC 22019 (American type culture collection). Cultures of bacteria (in Mueller–Hinton broth, MHB) and yeasts (in Sabouraud’s growth medium, SB) were incubated under shaking (250 rpm) at 37 °C. The growth of bacteria and yeasts was evaluated by measuring the absorbance of the growing cultures (A590) until the cultures reached the stationary growth phase. The effects of gallium(III) complexes on the growth of filamentous fungi Rhizopus oryzae (R. oryzae) CCM F-8284, Alternaria alternata (A. alternata) CCM F-128 and Microsporum gypseum (M. gypseum) CCM F-8342 (Czech Collection of Microorganisms) were observed by macrodilution method on solidified potato-dextrose growth medium (PDA). During culturing, the diameters of growing fungal colonies were measured at regular intervals. Briefly, the antimicrobial activity (bacteria and yeasts) gallium(III) complexes/ ligands were added to the microbial culture at the beginning of the cultivation-to the lag phase. Pure gallium(III) complexes/ligands were dissolved in DMSO. The final concentration of DMSO never exceeded 1.0 vol. % neither in control nor treated samples. Concentration of gallium(III) complexes used in experimental work for evaluation of antimicrobial activity was used in the range of 0.05–2 mM, for the free ligands in the range of 0.5–2.0 mM in all experiments. […] The IC50 values were evaluated from toxicity curves. All the obtained results of antimicrobial activity were compared to the activity of Ga(NO3)3.

[4] = system: Alternaria alternata (A. alternata) CCM F-128; experiment: Growth of filamentous fungi, macrodilution method on solidified PDA (colony diameter); format: cell-based; settings: Filamentous fungi, solidified potato-dextrose growth medium, read-out: IC50 A. alternata
Experimental: as §1

[5] = system: Microsporum gypseum (M. gypseum) CCM F-8342; experiment: as above; format: cell-based; settings: Filamentous fungi, solidified potato-dextrose growth medium, read-out: IC50 M. gypseum
Experimental: as §1

[6] = system: Rhizopus oryzae (R. oryzae) CCM F-8284; experiment: as above; format: cell-based; settings: solidified potato-dextrose growth medium, read-out: IC50 R. oryzae
Experimental: as §1

[7] = system: Staphylococcus aureus (S. aureus) CCM 3953; experiment: Antimicrobial activity, macrodilution method (growth by A590); format: cell-based; settings: for IC50: Bacteria, MHB, 37 °C, DMSO max 1.0 vol. %, read-out: IC50 S. aureus
Experimental: as §1

[8] = system: Escherichia coli (E. coli) CCM 3988; experiment: as above; format: cell-based; settings: Bacteria, MHB, 37 °C, DMSO max 1.0 vol. %, read-out: IC50 E. coli
Experimental: as §1

[9] = system: Pseudomonas aeruginosa (P. aeruginosa) CCM 1959; experiment: as above; format: cell-based; settings: for IC50: Bacteria, MHB, 37 °C, DMSO max 1.0 vol. %, read-out: IC50 P. aeruginosa
Experimental: as §1

[10] = molecular target: T1, bovine serum albumin (BSA) (Bos taurus, UniProt P02769); experiment: BSA fluorescence quenching (Stern-Volmer); format: binding; settings: 0.01 M PBS buffer pH 7.4, 25 °C, λex = 280 nm
T1 construct: purchased Sigma-Aldrich Chemicals
T1 sequence (P02769 25-607): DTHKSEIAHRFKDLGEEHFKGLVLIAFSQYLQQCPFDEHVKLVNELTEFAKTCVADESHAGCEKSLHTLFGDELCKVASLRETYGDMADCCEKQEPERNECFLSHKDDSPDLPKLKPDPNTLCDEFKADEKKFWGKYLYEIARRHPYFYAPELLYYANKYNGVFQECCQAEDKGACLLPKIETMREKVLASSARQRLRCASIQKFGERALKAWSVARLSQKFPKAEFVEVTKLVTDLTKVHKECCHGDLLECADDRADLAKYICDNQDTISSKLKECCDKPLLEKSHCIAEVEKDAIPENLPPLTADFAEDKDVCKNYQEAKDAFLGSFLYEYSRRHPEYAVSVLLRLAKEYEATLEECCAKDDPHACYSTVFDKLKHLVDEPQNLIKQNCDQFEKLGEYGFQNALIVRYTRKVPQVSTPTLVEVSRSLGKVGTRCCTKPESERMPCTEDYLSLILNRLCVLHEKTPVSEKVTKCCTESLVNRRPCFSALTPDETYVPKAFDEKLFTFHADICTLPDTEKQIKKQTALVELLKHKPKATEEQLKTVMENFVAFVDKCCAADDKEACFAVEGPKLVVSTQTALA
Experimental: Fluorescence measurements were carried out on a Varian Cary Eclipse spectrofluorometer. The quenching studies of BSA with the Ga(III) complexes were investigated to determine whether they were able to quench fluorescence of BSA. All measurements were performed at 25 °C in 0.01 M PBS buffer (pH 7.4). The fluorescence spectra were measured at an excitation wavelength of 280 nm, with a slit width of 10 nm for the excitation and emission beams, in the range of 300–450 nm and analysed according to the classical Stern–Volmer Equation: F0/F=1+KSVQ where F0 and F are the fluorescence intensities in the absence and the presence of the quencher, respectively, KSV is the Stern–Volmer constant, and [Q] is the concentration of quencher.

[11] = system: Jurkat (human leukaemic T cell lymphoma); experiment: MTS antiproliferative assay
Experimental: (§2) Cell culture the cell lines A2058 (human metastatic melanoma), BLM (human metastatic melanoma), HCT116 (human colorectal carcinoma), HeLa (human cervical adenocarcinoma), Jurkat (human leukaemic T cell lymphoma). […] Cells were maintained in standard conditions with an atmosphere containing 5% CO2 at 37 °C.
(§3) The antiproliferative activity of Ga(III) complexes GaPic, GaDpic, GaChel, GaCldpic, free ligands (HPic, H2Dpic, H2Chel, H2Cldpic) and cisplatin (cisPt) were evaluated by colorimetric microculture MTS (3-(4,5-dimethylthiazol-2-yl)-5-(3-carboxymethoxyphenyl)-2-(4-sulfophenyl)-2H tetrazolium) assay (Promega, Madison, WI, USA). Cancer and non-cancer cells were seeded at density 5 × 10^3 cells/well in 96-well polystyrene microplates. Twenty-four hours after cell seeding, different concentrations (1.0—100.0 µM) of the compounds were tested. After 72 h of incubation, 10 µL of MTS was added to each well. After an additional 2 h, cell proliferation was evaluated by measuring of absorbance at wavelength 490 nm using the automated Cytation™ 3 Cell Imaging Multi-Mode Reader (Biotek, Winooski, VT, USA). The absorbance of control wells was taken as 100%, and the results were expressed as a percent of untreated control. IC50 values were calculated from MTS analyses.

[12] = system: MDA-MB-231 (human mammary gland adenocarcinoma); experiment: MTS antiproliferative assay
Experimental: as §2, §3

[13] = system: A2058 (human metastatic melanoma); experiment: MTS antiproliferative assay
Experimental: as §2, §3

[14] = system: PaTu 8902 (human pancreatic adenocarcinoma); experiment: MTS antiproliferative assay
Experimental: as §2, §3

[15] = system: HCT116 (human colorectal carcinoma); experiment: MTS antiproliferative assay
Experimental: as §2, §3

[16] = system: HeLa (human cervical adenocarcinoma); experiment: MTS antiproliferative assay
Experimental: as §2, §3

[17] = system: human dermal fibroblasts (HDF); experiment: in vitro
Experimental: as §2, §3

any model microorganism = experiment: Antimicrobial activity, macrodilution method, all model microorganisms together; format: cell-based; settings: free ligands, range 0.5–2.0 mM
Experimental: as §1, with “Cultures” for “The antimicrobial activities of gallium(III) complexes GaPic, GaDpic, GaChel, GaCldpic, free ligands (HPic, H2Dpic, H2Chel, H2Cldpic) and positive controls (cefoxitin (C), ampicillin (A) and piperacillin (P)) were evaluated by macrodilution method using G^+ bacteria (Firmicutes) Staphylococcus aureus (S. aureus) CCM 3953 (Czech Collection of Microorganisms), G^− bacteria (γ-proteobacteria) Escherichia coli (E. coli) CCM 3988, Pseudomonas aeruginosa (P. aeruginosa) CCM 1959 (Czech Collection of Microorganisms) and the yeast Candida parapsilosis (C. parapsilosis) ATCC 22019 (American type culture collection). Cultures”

in vitro = settings: human
Experimental: as §2, §3

[18] = system: cancer cell lines (A2780, MDA-MB-231, HCT116); set-up: method as in PMID 32354569; settings: cited from earlier work
[19] = Lodderomyces parapsilosis, ATCC22019
[20] = Pseudomonas aeruginosa, CCM1959
[21] = Homo sapiens, Jurkat, 72 h, read-out: Cytotoxic activity IC50 Jurkat
[22] = Homo sapiens, MDA-MB-231, 72 h, read-out: Cytotoxic activity IC50 MDA-MB-231
[23] = Homo sapiens, A2058, 72 h, read-out: Cytotoxic activity IC50 A2058
[24] = Homo sapiens, PaTu 8902, 72 h, read-out: Cytotoxic activity IC50 PaTu 8902
[25] = Homo sapiens, HCT-116, 72 h, read-out: Cytotoxic activity IC50 HCT116
[26] = Homo sapiens, HeLa, 72 h, read-out: Cytotoxic activity IC50 HeLa

Row | Structure (SMILES) | decrease in cell viability of HepG2 ([1]; 100 μM) | IC50 [3, 19] | effect on the growth of any model microorganism (any model microorganism) | IC50 ([4]; Alternaria alternata) | IC50 ([5]; Nannizzia gypsea) | IC50 ([6]; Rhizopus arrhizus) | IC50 ([7]; Staphylococcus aureus, CCM3953) | IC50 ([8]; Escherichia coli, CCM3988) | IC50 [9, 20] | IC50 [11, 21] | IC50 [12, 22] | IC50 [13, 23] | IC50 [14, 24] | IC50 [15, 25] | IC50 [16, 26] | also measured
1 | O=C([O-])c1ccccn1.[Ag+] [AgPic] | 40% |  |  |  |  |  |  |  |  |  |  |  |  |  |  | decrease in cell viability of HepG2 ([1]; 75 μM): 45%
2 | Cc1occc(=O)c1[O-].Cc1occc(=O)c1[O-].Cc1occc(=O)c1[O-].[Ga+3] [GaM, Ga(III) maltolate] |  |  |  |  |  |  |  |  |  |  |  |  |  |  |  | IC50 (HepG2 cells): 25 to 35 µM
3 | O.O=C([O-])c1ccccn1.O=C([O-])c1ccccn1.O=C([O-])c1ccccn1.[Ga+3] [GaPic, [Ga(Pic)3]·H2O] | 28% |  |  |  |  |  |  |  |  |  |  |  |  |  |  | stability in 1% DMSO-d6/D2O solution [2]: does not decompose; IC50 [3]: > 2000 µM; IC50 [4]: > 2000 µM; IC50 [5]: > 2000 µM; IC50 [6]: > 2000 µM; IC50 [7]: 2000 µM; inhibition of S. aureus growth ([7]; complex at 2 mM): 50%; IC50 [8]: > 2000 µM; IC50 [9]: 50 µM; MIC100 (MIC) P. aeruginosa ([9]; growth fully inhibited (100%)): 500 µM; Stern–Volmer binding constant Ksv BSA [10]: 46700 M⁻¹; IC50 [11]: 175 ± 47.7 µM; IC50 [12]: 152 ± 74.3 µM; IC50 [13]: 187 ± 12.2 µM; IC50 [14]: 271 ± 34.3 µM; IC50 [15]: 995 ± 27.5 µM; IC50 [16]: 1530 ± 108 µM; IC50 [17]: 231 ± 23.8 µM
4 | O=C(O)c1cc(O)cc(C(=O)O)n1 [H2Chel, chelidamic acid] |  | > 500 µM | did not affect the growth | > 500 µM | > 500 µM | > 500 µM | > 500 µM | > 500 µM | > 500 µM | > 200 µM | > 200 µM | > 200 µM | > 200 µM | > 200 µM | > 200 µM | IC50 at 72 h (in vitro): > 200 µM
5 | O=C(O)c1cc(Cl)cc(C(=O)O)n1 [H2Cldpic, 4-chlorodipicolinic acid] |  | > 500 µM | did not affect the growth | > 500 µM | > 500 µM | > 500 µM | > 500 µM | > 500 µM | > 500 µM | > 200 µM | > 200 µM | > 200 µM | > 200 µM | > 200 µM | > 200 µM | IC50 at 72 h (in vitro; human dermal fibroblasts (HDF)): > 200 µM
6 | CO.[Ga+3].[O-]c1ccc(Cl)c2cccnc12.[O-]c1ccc(Cl)c2cccnc12.[O-]c1ccc(Cl)c2cccnc12 [[Ga(ClQ)3]⋅MeOH] |  |  |  |  |  |  |  |  |  |  |  |  |  |  |  | activity of the Ga(III) complex relative to the activity of H-ClQ [18]: at least 2.5 times
